According to patent US7301020B2, “Macrolide analogs and methods for identifying same” (priority 2003, dated 2007):

Target: T1, F-actin (Oryctolagus cuniculus, UniProt P68135)
T1 construct: F-actin is purified from rabbit skeletal muscle using a standard protocol; Prodan (Acrylodan) fluorophore on Cys374 (in the fluorescence spectra); from tissue; host or cells: rabbit skeletal muscle
Assay: KabC binding to and severing of Prodan-F-actin (fluorescence spectra, SDS-PAGE of supernatant and pellet)
Format: biochemical, rabbit
Protocol: FIG. 6: Fluorescence emission spectra of 5 μM Prodan-F-actin in the absence (a), and after selected times following the addition of KabC to 5 μM: (b), immediately after the addition of KabC (the emission spectrum is acquired in 30 seconds); (c), 15 min; (d), 39 min; (e), The spectrum of an equivalent concentration of the KabC-Prodan-G-actin complex. Inset: SDS-PAGE Analysis of KabC binding to F-actin. 100 μL of F-actin (10 μM) in […] was treated each with KabC (a: 0; b: 1; c: 4; d: 10 μM) for 30 min and airfuged at 120,000 g for another 30 min. Supernatant (S) and pellet (P) of each sample was run on SDS-PAGE.
F-actin: F-actin is purified from rabbit skeletal muscle using a standard protocol developed in the PI's laboratory (Marriott et al, 1988). The purity and activity of actin is analyzed using SDS-PAGE, polymerization assays and a motility assay (Heidecker et al, 1995).
The fluorescence emission of Prodan-F-actin is also immediately quenched upon adding KabC ([…]). However, a particularly attractive feature of the Prodan-actin probe is that the average energy of the fluorescence emission changes appreciably following the binding of ABPs, macrolides and in the transition of F-actin to G-actin. Careful analysis of the spectrum can yield information on the relative amounts of up to 4 different states in equilibrium (Marriott et al, 1988). This feature is useful to help understand how KabC binds to Prodan-F-actin. The addition of an equimolar amount of KabC to Prodan-F-actin leads to an immediate decrease in the fluorescence quantum yield, which is followed by a far slower red-shift in the average energy of the emission spectrum over time. […] In this experiment, the monomeric actin (supernatant, S) and F-actin (pellet, P) fractions of KabC treated F-actin are separated after a 60-minute incubation by high-speed centrifugation (120,000 g) and quantified by Coumassie staining of the acrylamide gel. […]

In the case of Kabiramide C [KabC], the F-actin severing is reported as “single and slow severing event”, the “actin fraction by SDS-PAGE after centrifugation” value (F-Actin:KabC 10:1 and 5:2) is reported as “a significant fraction of the total actin exists as F-actin” and the “depolymerization of F-actin” value (sub-stoichiometric KabC (1/10th)) is reported as “not depolymerized”.
